# Like-named read-outs stand apart in the source and are kept apart here.
# Columns and labels:
# [1] = tested on: influenza A virus A/Vic/3/75 (H3N2); assay: In vitro antiviral bioassay (CPE reduction, SRB) in MDCK cells; assay type: cell-based; details: for IC50: Influenza A virus, H3N2, MDCK, 48 h; for TI A/VIC/3/75 (H3N2): Therapeutic index, TI = CC50/IC50
# MDCK cells = details: dog, 48 h
# [2] = tested on: influenza B virus B/Lee/40; assay: In vitro antiviral bioassay (CPE reduction, SRB) in MDCK cells; assay type: cell-based; details: for IC50: Influenza B virus; for TI B/LEE/40: Therapeutic index, TI = CC50/IC50
# [3] = tested on: influenza A virus A/PR/8/34 (H1N1); assay: as above; assay type: cell-based; details: for IC50: Influenza A virus, MDCK, 48 h; for TI A/PR/8/34 (H1N1): Therapeutic index, TI = CC50/IC50
# in vitro = details: dog
# [4] = tested on: influenza B virus B/Maryland/1/59; assay: In vitro antiviral bioassay (CPE reduction, SRB) in MDCK cells; assay type: cell-based; details: for IC50: Influenza B virus, read-out: IC50 B/MARYLAND/1/59; for TI B/MARYLAND/1/59: Therapeutic index, TI = CC50/IC50
# [5] = molecular target: influenza virus neuraminidase (Influenza A virus, UniProt P03468); assay: Viral neuraminidase inhibition assay (NA-Star kit); assay type: biochemical, influenza A/PR/8/34 virus; details: for activity at 0.1 µg/mL: at 0.1 μg/mL; for activity at 0.1 µg/mL / activity at 1 µg/mL / activity at 10 µg/mL: (Treatment/Virus) × 100, remaining activity; for activity at 1 µg/mL: at 1 μg/mL; for activity at 10 µg/mL: at 10 μg/mL; for NA inhibition activity (in words): compared with oseltamivir, Figure 1
# [6] = Cytotoxicity on MDCK cells, SRB method; details: dog
# [7] = MDCK cells, 50 TCID50, 48 h, mean ± S.D., triplicate
# Chain of influenza virus neuraminidase (P03468 whole entry, looked up): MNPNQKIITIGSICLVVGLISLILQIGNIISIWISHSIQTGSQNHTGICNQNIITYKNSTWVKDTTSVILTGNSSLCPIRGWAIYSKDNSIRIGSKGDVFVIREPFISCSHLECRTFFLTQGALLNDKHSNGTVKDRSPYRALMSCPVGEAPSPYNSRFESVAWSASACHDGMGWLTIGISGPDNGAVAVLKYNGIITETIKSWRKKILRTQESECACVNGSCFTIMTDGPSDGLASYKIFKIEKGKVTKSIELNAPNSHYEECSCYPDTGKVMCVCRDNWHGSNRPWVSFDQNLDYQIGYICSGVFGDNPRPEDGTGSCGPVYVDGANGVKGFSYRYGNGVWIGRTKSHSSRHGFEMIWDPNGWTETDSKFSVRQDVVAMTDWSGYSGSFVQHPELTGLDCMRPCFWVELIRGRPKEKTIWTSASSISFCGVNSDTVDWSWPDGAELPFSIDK
SMILES,IC50 [1] [µg/mL],TI A/VIC/3/75 (H3N2) [1],CC50 (MDCK cells) [µg/mL],"IC50 [2, 7] [µg/mL]",TI B/LEE/40 [2],IC50 [3] [µg/mL],TI A/PR/8/34 (H1N1) [3],CC50 at 48 h (in vitro) [µg/mL],"IC50 [4, 7] [µg/mL]",TI B/MARYLAND/1/59 [4],activity at 0.1 µg/mL [5] [%],activity at 1 µg/mL [5] [%],activity at 10 µg/mL [5] [%],NA inhibition activity (in words) [5],CC50 at 48 h [6] [µg/mL],"IC50 ([4]; MDCK, 48 h) [µg/mL]",IC50 A/VIC/3/75 (H3N2) [1],"IC50 B/LEE/40 [2, 7]",IC50 A/PR/8/34 (H1N1) [3],"IC50 B/MARYLAND/1/59 [4, 7]"
COc1ccc2cc3[n+](cc2c1OCCCCCNc1nc2ccc([N+](=O)[O-])cc2s1)CCc1cc2c(cc1-3)OCO2 [BBD 2],52.2 ± 2.07,6.525,340.5 ± 1.180,61.7 ± 1.65,5.516,30.9 ± 0.619,11.01,> 100,65.3 ± 1.88,5.212,–,–,–,–,–,–,–,–,–,–
COc1ccc2cc3[n+](cc2c1OCCCCCNc1nc2ccc(Cl)cc2s1)CCc1cc2c(cc1-3)OCO2 [BBD 7],38.8 ± 2.51,11.94,463.5 ± 3.386,81.4 ± 3.01,–,24.3 ± 0.419,19.08,> 100,88.1 ± 1.16,5.259,37.4,32.1,14.5,–,–,–,–,–,–,–
COc1ccc2cc3[n+](cc2c1OCCCCCNNc1nc2ccccc2s1)CCc1cc2c(cc1-3)OCO2 [BBD 14],56.3 ± 2.06,5.403,304.3 ± 1.261,70.3 ± 2.24,4.327,40.3 ± 0.725,7.543,> 100,73.4 ± 2.17,4.143,–,–,–,–,–,–,–,–,–,–
COc1ccc2cc3[n+](cc2c1OCCCCCNc1nc2ccc(C(=O)O)cc2s1)CCc1cc2c(cc1-3)OCO2 [BBD 3],60.7 ± 1.06,6.303,382.9 ± 2.964,53.9 ± 1.36,7.105,35.9 ± 0.659,10.65,> 100,56.4 ± 1.06,6.784,–,–,–,–,–,–,–,–,–,–
CCOc1ccc2nc(NCCCCCOc3c(OC)ccc4cc5[n+](cc34)CCc3cc4c(cc3-5)OCO4)sc2c1 [BBD 6],60.4 ± 1.35,3.663,221.4 ± 1.180,38.8 ± 2.08,5.712,42.8 ± 0.478,5.176,> 100,36.9 ± 2.15,6.003,–,–,–,–,–,–,–,–,–,–
COc1ccc2cc3[n+](cc2c1OCCCCCNc1nc2ccc(F)cc2s1)CCc1cc2c(cc1-3)OCO2 [BBD 10],49.9 ± 1.31,6.228,310.6 ± 1.629,64.6 ± 1.24,4.812,30.5 ± 0.761,10.18,> 100,75.7 ± 2.06,4.100,–,–,–,–,–,–,–,–,–,–
COc1ccc2nc(NCCCCCOc3c(OC)ccc4cc5[n+](cc34)CCc3cc4c(cc3-5)OCO4)sc2c1 [BBD 5],57.3 ± 2.13,5.343,306.4 ± 3.612,36.9 ± 1.52,8.294,39.54 ± 0.326,7.749,> 100,44.3 ± 2.06,6.921,–,–,–,moderate NA inhibition activity,–,–,–,–,–,–
COc1ccc2cc3[n+](cc2c1OCCCCCNc1nc2ccc(C)cc2s1)CCc1cc2c(cc1-3)OCO2 [BBD 4],55 ± 0.87,5.862,322.6 ± 2.543,43.2 ± 0.86,7.406,37.3 ± 0.669,8.655,> 100,41.6 ± 0.67,7.762,–,–,–,moderate NA inhibition activity,–,–,–,–,–,–
COc1ccc2cc3[n+](cc2c1OCCCCCNc1nc2ccc(Br)cc2s1)CCc1cc2c(cc1-3)OCO2 [BBD 8],70.7 ± 0.94,4.65,328.9 ± 1.065,74.8 ± 1.83,4.395,68.02 ± 0.67,4.835,> 100,81.2 ± 0.91,4.052,–,–,–,–,–,–,–,–,–,–
COc1ccc2cc3[n+](cc2c1OCCCCCNc1nc2ccc(C(F)(F)F)cc2s1)CCc1cc2c(cc1-3)OCO2 [BBD 12],44.6 ± 1.65,6.784,302.3 ± 2.446,67.7 ± 1.52,4.468,28.7 ± 0.514,10.52,> 100,66.2 ± 1.82,4.565,–,–,–,–,–,–,–,–,–,–
COc1ccc2cc3[n+](cc2c1OCCCCCNc1nc2ccccc2s1)CCc1cc2c(cc1-3)OCO2 [BBD 1],45.1 ± 1.75,9.672,436.7 ± 2.635,55.5 ± 3.77,7.874,25.2 ± 0.154,17.32,> 100,55.1 ± 2.65,7.924,40.3,30.4,15.6,–,–,–,–,–,–,–
COc1ccc2cc3[n+](cc2c1OCCCCCNc1nc2ccc(I)cc2s1)CCc1cc2c(cc1-3)OCO2 [BBD 9],54.2 ± 2.09,5.585,302.5 ± 1.771,69.8 ± 2.57,4.331,54.5 ± 1.75,5.547,> 100,78.5 ± 2.31,3.851,–,–,–,–,–,–,–,–,–,–
"COc1ccc2cc3[n+](cc2c1OC)CCc1cc2c(cc1-3)OCO2 [BERBERINE, Berberine]",41.6 ± 2.04,1.571,–,60.8 ± 1.86,1.07,36.1 ± 1.57,1.808,–,–,1.196,–,–,–,–,65.3 ± 1.92,54.6 ± 1.45,–,–,–,–
"CCOC(=O)C1=C[C@@H](OC(CC)CC)[C@H](NC(C)=O)[C@@H](N)C1 [OSELTAMIVIR, Oseltamivir phosphate, reference compound]",22.1 ± 1.07,9.27,–,55.9 ± 1.13,3.67,11.6 ± 1.43,17.75,–,–,4.64,39.1,29.1,18.3,–,> 100,44.2 ± 1.83,–,–,–,–
COc1ccc2cc3[n+](cc2c1OCCCCCNc1nc2ccc(C#N)cc2s1)CCc1cc2c(cc1-3)OCO2 [BBD 13],–,–,–,–,–,–,–,45.1 ± 0.864,–,–,–,–,–,–,–,–,did not show any activity,did not show any activity,did not show any activity,did not show any activity
COc1ccc2cc3[n+](cc2c1OCCCCCNc1nc2c(F)cc(F)cc2s1)CCc1cc2c(cc1-3)OCO2 [BBD 11],48.4 ± 2.2,9.655,467.7 ± 2.647,85.1 ± 3.74,5.494,27.2 ± 0.394,17.19,> 100,98.3 ± 2.21,4.75,40.8,33.2,18.4,–,–,–,–,–,–,–
